According to PubChem BioAssay (NCI):
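These data come from cells grown in 96-well plates and exposed to compound for 48 hours at five concentrations. TGI marks complete inhibition of growth.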

How the values were obtained:
Assay in all cases: NCI anticancer screen, dose series, 48 h
786-0 renal = tested on: 786-0 renal
A498 renal = tested on: A498 renal
A549 NSCLC = tested on: A549 NSCLC
ACHN renal = tested on: ACHN renal
BT-549 breast = tested on: BT-549 breast
CAKI-1 renal = tested on: CAKI-1 renal
CCRF-CEM leukemia = tested on: CCRF-CEM leukemia
COLO 205 colon = tested on: COLO 205 colon
DU-145 prostate = tested on: DU-145 prostate
EKVX NSCLC = tested on: EKVX NSCLC
HCC-2998 colon = tested on: HCC-2998 colon
HCT-116 colon = tested on: HCT-116 colon
HCT-15 colon = tested on: HCT-15 colon
HL-60(TB) leukemia = tested on: HL-60(TB) leukemia
HOP-62 NSCLC = tested on: HOP-62 NSCLC
HOP-92 NSCLC = tested on: HOP-92 NSCLC
HS 578T breast = tested on: HS 578T breast
HT29 colon = tested on: HT29 colon
IGROV1 ovarian = tested on: IGROV1 ovarian
K-562 leukemia = tested on: K-562 leukemia
KM12 colon = tested on: KM12 colon
LOX IMVI melanoma = tested on: LOX IMVI melanoma
M14 melanoma = tested on: M14 melanoma
MALME-3M melanoma = tested on: MALME-3M melanoma
MCF7 breast = tested on: MCF7 breast
MDA-MB-231 breast = tested on: MDA-MB-231 breast
MDA-MB-435 = tested on: MDA-MB-435
MDA-N = tested on: MDA-N
MOLT-4 leukemia = tested on: MOLT-4 leukemia
NCI-H226 lung = tested on: NCI-H226 lung
NCI-H23 lung = tested on: NCI-H23 lung
NCI-H460 lung = tested on: NCI-H460 lung
NCI-H522 lung = tested on: NCI-H522 lung
NCI/ADR-RES ovarian = tested on: NCI/ADR-RES ovarian
OVCAR-3 ovarian = tested on: OVCAR-3 ovarian
OVCAR-4 ovarian = tested on: OVCAR-4 ovarian
OVCAR-5 ovarian = tested on: OVCAR-5 ovarian
OVCAR-8 ovarian = tested on: OVCAR-8 ovarian
PC-3 prostate = tested on: PC-3 prostate
RPMI-8226 leukemia = tested on: RPMI-8226 leukemia
RXF 393 renal = tested on: RXF 393 renal
SF-268 CNS = tested on: SF-268 CNS
SF-295 CNS = tested on: SF-295 CNS
SF-539 CNS = tested on: SF-539 CNS
SK-MEL-2 melanoma = tested on: SK-MEL-2 melanoma
SK-MEL-28 melanoma = tested on: SK-MEL-28 melanoma
SK-MEL-5 melanoma = tested on: SK-MEL-5 melanoma
SK-OV-3 ovarian = tested on: SK-OV-3 ovarian
SN12C renal = tested on: SN12C renal
SNB-19 CNS = tested on: SNB-19 CNS
SR leukemia = tested on: SR leukemia
SW-620 colon = tested on: SW-620 colon
T-47D breast = tested on: T-47D breast
TK-10 renal = tested on: TK-10 renal
U251 CNS = tested on: U251 CNS
UACC-257 melanoma = tested on: UACC-257 melanoma
UACC-62 melanoma = tested on: UACC-62 melanoma
UO-31 renal = tested on: UO-31 renal
DLD-1 colon = tested on: DLD-1 colon
DMS 114 small cell lung = tested on: DMS 114 small cell lung
DMS 273 small cell lung = tested on: DMS 273 small cell lung
HOP-18 NSCLC = tested on: HOP-18 NSCLC
KM20L2 colon = tested on: KM20L2 colon
LXFL 529 NSCLC = tested on: LXFL 529 NSCLC
M19-MEL melanoma = tested on: M19-MEL melanoma
SNB-75 CNS = tested on: SNB-75 CNS
SNB-78 CNS = tested on: SNB-78 CNS

C=CCC1(C)CCCN(Cc2ccccc2)C1=O (stereo not drawn)
TGI (786-0 renal): > 10 µM
TGI (A498 renal): 3.91 µM
TGI (A549 NSCLC): > 10 µM
TGI (ACHN renal): > 10 µM
TGI (BT-549 breast): > 10 µM
TGI (CAKI-1 renal): > 10 µM
TGI (CCRF-CEM leukemia): > 10 µM
TGI (COLO 205 colon): > 10 µM
TGI (DU-145 prostate): > 10 µM
TGI (EKVX NSCLC): > 10 µM
TGI (HCC-2998 colon): > 10 µM
TGI (HCT-116 colon): > 10 µM
TGI (HCT-15 colon): > 10 µM
TGI (HL-60(TB) leukemia): > 10 µM
TGI (HOP-62 NSCLC): > 10 µM
TGI (HOP-92 NSCLC): > 10 µM
TGI (HS 578T breast): > 10 µM
TGI (HT29 colon): > 10 µM
TGI (IGROV1 ovarian): 3.41 µM
TGI (K-562 leukemia): > 10 µM
TGI (KM12 colon): > 10 µM
TGI (LOX IMVI melanoma): > 10 µM
TGI (M14 melanoma): > 10 µM
TGI (MALME-3M melanoma): > 10 µM
TGI (MCF7 breast): > 10 µM
TGI (MDA-MB-231 breast): > 10 µM
TGI (MDA-MB-435): > 10 µM
TGI (MDA-N): > 10 µM
TGI (MOLT-4 leukemia): > 10 µM
TGI (NCI-H226 lung): > 10 µM
TGI (NCI-H23 lung): > 10 µM
TGI (NCI-H460 lung): > 10 µM
TGI (NCI-H522 lung): > 10 µM
TGI (NCI/ADR-RES ovarian): > 10 µM
TGI (OVCAR-3 ovarian): > 10 µM
TGI (OVCAR-4 ovarian): > 10 µM
TGI (OVCAR-5 ovarian): > 10 µM
TGI (OVCAR-8 ovarian): > 10 µM
TGI (PC-3 prostate): > 10 µM
TGI (RPMI-8226 leukemia): > 10 µM
TGI (RXF 393 renal): > 10 µM
TGI (SF-268 CNS): > 10 µM
TGI (SF-295 CNS): > 10 µM
TGI (SF-539 CNS): > 10 µM
TGI (SK-MEL-2 melanoma): > 10 µM
TGI (SK-MEL-28 melanoma): > 10 µM
TGI (SK-MEL-5 melanoma): 1.48 µM
TGI (SK-OV-3 ovarian): > 10 µM
TGI (SN12C renal): > 10 µM
TGI (SNB-19 CNS): > 10 µM
TGI (SR leukemia): > 10 µM
TGI (SW-620 colon): > 10 µM
TGI (T-47D breast): > 10 µM
TGI (TK-10 renal): > 10 µM
TGI (U251 CNS): > 10 µM
TGI (UACC-257 melanoma): > 10 µM
TGI (UACC-62 melanoma): > 10 µM
TGI (UO-31 renal): > 10 µM

O=C1CCCC/C1=C\c1ccc(Cl)c(Cl)c1
TGI (A498 renal): > 100 µM
TGI (A549 NSCLC): > 100 µM
TGI (ACHN renal): 33.5 µM
TGI (CAKI-1 renal): 37.6 µM
TGI (CCRF-CEM leukemia): 58.7 µM
TGI (COLO 205 colon): 96.6 µM
TGI (DLD-1 colon): 61.6 µM
TGI (DMS 114 small cell lung): 41.1 µM
TGI (DMS 273 small cell lung): 38.5 µM
TGI (EKVX NSCLC): > 100 µM
TGI (HCC-2998 colon): 42.7 µM
TGI (HCT-116 colon): 31.9 µM
TGI (HCT-15 colon): 39.3 µM
TGI (HL-60(TB) leukemia): 48.9 µM
TGI (HOP-18 NSCLC): 51.7 µM
TGI (HOP-62 NSCLC): > 100 µM
TGI (HT29 colon): 55.1 µM
TGI (IGROV1 ovarian): 61.7 µM
TGI (K-562 leukemia): 48 µM
TGI (KM20L2 colon): 40.9 µM
TGI (LOX IMVI melanoma): 34.7 µM
TGI (LXFL 529 NSCLC): 31.2 µM
TGI (M14 melanoma): 42.2 µM
TGI (M19-MEL melanoma): 40.3 µM
TGI (MOLT-4 leukemia): 43.8 µM
TGI (NCI-H23 lung): 71.3 µM
TGI (NCI-H460 lung): 42.6 µM
TGI (OVCAR-4 ovarian): 41 µM
TGI (OVCAR-8 ovarian): 78 µM
TGI (SF-268 CNS): 59.4 µM
TGI (SF-539 CNS): 32.5 µM
TGI (SK-MEL-28 melanoma): 37.7 µM
TGI (SK-MEL-5 melanoma): 32.5 µM
TGI (SK-OV-3 ovarian): > 100 µM
TGI (SN12C renal): 31 µM
TGI (SNB-19 CNS): 74.3 µM
TGI (SNB-75 CNS): 46.8 µM
TGI (SNB-78 CNS): 52.7 µM
TGI (SW-620 colon): 50.7 µM
TGI (TK-10 renal): 34.4 µM
TGI (U251 CNS): 30.6 µM
TGI (UACC-62 melanoma): 63.6 µM
TGI (UO-31 renal): 34 µM

CC(C)(C)NC(=O)CCC1C(C(=O)NC(C)(C)C)C2(Cl)C(Cl)=C(Cl)C1(Cl)C2(Cl)Cl (stereo not drawn)
TGI (786-0 renal): > 100 µM
TGI (A498 renal): > 100 µM
TGI (A549 NSCLC): > 100 µM
TGI (ACHN renal): > 100 µM
TGI (BT-549 breast): > 100 µM
TGI (CCRF-CEM leukemia): > 100 µM
TGI (COLO 205 colon): > 100 µM
TGI (DU-145 prostate): > 100 µM
TGI (EKVX NSCLC): > 100 µM
TGI (HCC-2998 colon): > 100 µM
TGI (HCT-116 colon): > 100 µM
TGI (HCT-15 colon): > 100 µM
TGI (HL-60(TB) leukemia): > 100 µM
TGI (HOP-62 NSCLC): > 100 µM
TGI (HS 578T breast): > 100 µM
TGI (HT29 colon): > 100 µM
TGI (IGROV1 ovarian): > 100 µM
TGI (K-562 leukemia): > 100 µM
TGI (KM12 colon): > 100 µM
TGI (LOX IMVI melanoma): > 100 µM
TGI (M14 melanoma): > 100 µM
TGI (MALME-3M melanoma): > 100 µM
TGI (MCF7 breast): > 100 µM
TGI (MDA-MB-231 breast): > 100 µM
TGI (MDA-MB-435): > 100 µM
TGI (MDA-N): > 100 µM
TGI (MOLT-4 leukemia): > 100 µM
TGI (NCI-H226 lung): > 100 µM
TGI (NCI-H23 lung): > 100 µM
TGI (NCI-H460 lung): > 100 µM
TGI (NCI-H522 lung): > 100 µM
TGI (NCI/ADR-RES ovarian): > 100 µM
TGI (OVCAR-3 ovarian): > 100 µM
TGI (OVCAR-4 ovarian): > 100 µM
TGI (OVCAR-5 ovarian): > 100 µM
TGI (OVCAR-8 ovarian): > 100 µM
TGI (PC-3 prostate): > 100 µM
TGI (RPMI-8226 leukemia): > 100 µM
TGI (RXF 393 renal): > 100 µM
TGI (SF-268 CNS): > 100 µM
TGI (SF-295 CNS): > 100 µM
TGI (SF-539 CNS): > 100 µM
TGI (SK-MEL-2 melanoma): > 100 µM
TGI (SK-MEL-28 melanoma): > 100 µM
TGI (SK-MEL-5 melanoma): > 100 µM
TGI (SK-OV-3 ovarian): > 100 µM
TGI (SN12C renal): > 100 µM
TGI (SNB-19 CNS): > 100 µM
TGI (SNB-75 CNS): > 100 µM
TGI (SR leukemia): > 100 µM
TGI (SW-620 colon): > 100 µM
TGI (T-47D breast): > 100 µM
TGI (TK-10 renal): > 100 µM
TGI (U251 CNS): > 100 µM
TGI (UACC-257 melanoma): > 100 µM
TGI (UACC-62 melanoma): > 100 µM
TGI (UO-31 renal): > 100 µM
